Data published in patent US10188634B2, “3-(3H-imidazo[4,5-C]pyridin-2-yl)-1 H-pyrazolo[4,3-B]pyridines and therapeutic uses thereof” (Samumed, LLC, priority 2015, dated 2019).

Experiments:
Type in all cases: cell-based
[1] = test system: primary human mesenchymal stem cells (hMSCs); assay: Induction of chondrogenesis in primary human mesenchymal stem cells (hMSCs), nodule imaging with Rhodamine B / Nile Red; conditions: for Emax: hMSCs chondrogenesis, TGF-β3 (10 ng/mL) as positive control, read-out: Max. Activity as % TGF-β3 activity; for EC50: hMSCs, concentration required to induce 50% levels of chondrogenesis vs TGF-β3 positive control, read-out: Conc (nM) of 50% TGF-β3 activity
Description: Representative compounds were screened using primary human mesenchymal stem cells (hMSCs) to determine their ability to induce chondrogenesis (process by which cartilage is developed).
Human Mesenchymal Stem Cell Culture: Primary human mesenchymal stem cells (hMSCs) were purchased from Lonza (Walkersville, Md.) and expanded in Mesenchymal Stem Cell Growth Media (Lonza). Cells between passage 3 and 6 were used for the experiments.
Compound Screening: Each compound was dissolved in DMSO as a 10 mM stock and used to prepare compound source plates. For the 96 well assay, serial dilution (1:3, 6-point dose-response curves from 2700 nM to 10 nM) and compound transfer was performed using the ECHO 550 (Labcyte, Sunnyvale, Calif.) into 96-well clear bottom assay plates (Greiner Bio-One) with appropriate DMSO backfill for a final DMSO concentration of 0.03%. hMSCs were plated at 20,000 cells/well in 250 μL/well Incomplete Chondrogenic Induction Medium (Lonza; DMEM, dexamethasone, ascorbate, insulin-transferrin-selenium [ITS supplement], gentamycin-amphotericin [GA-1000], sodium pyruvate, proline and L-glutamine). TGF-β3 (10 ng/mL) was used as a positive control for differentiation while negative control wells were treated with 75 nL DMSO for normalization and calculating EC50 values. For the 384 well assay, serial dilution (1:3, 8-point dose-response curves from 5000 nM to 2.2 nM) and compound transfer was performed using the ECHO 550 (Labcyte, Sunnyvale, Calif.) into 384-well clear bottom assay plates (Greiner Bio-One) with appropriate DMSO backfill for a final DMSO concentration of 0.03%. hMSCs were plated at 8,000 cells/well in 80 μL/well Incomplete Chondrogenic Induction Medium (Lonza; DMEM, dexamethasone, ascorbate, insulin-transferrin-selenium [ITS supplement], gentamycin-amphotericin [GA-1000], sodium pyruvate, proline and L-glutamine). TGF-β3 (10 ng/mL) was used as a positive control for differentiation while negative control wells were treated with 25 nL DMSO for normalization and calculating EC50 values. Cells were incubated at 37° C. and 5% CO2 for 6 days. To image chondrogenic nodules, the cells were fixed using 4% formaldehyde (Electron Microscopy Sciences), and stained with 2 μg/mL Rhodamine B (Sigma-Aldrich) and 20 μM Nile Red (Sigma-Aldrich) [Johnson K., et.al, A Stem Cell-Based Approach to Cartilage Repair, Science, (2012), 336(6082). 717-721]. The nodules imaged (25 images per well for 96 well plates and 9 images per well for 384 well plates at 10× magnification) by excitation at 531 nm and emission at 625 nm and quantified using the CellInsight CX5 (Thermo Scientific). Area of nodules in each well was normalized to the average of 3 DMSO treated wells on the same plate using Excel (Microsoft Inc.). The normalized averages (fold change over DMSO) of 2 or 3 replicate wells for each compound concentration were calculated. Due to solubility limitations of some of the compounds, curve fitting was incomplete leading to inaccurate EC50 determinations.
Using TGF-β3 as a positive control, the concentration of representative compounds required to induce 50% levels of chondrogenesis is reported. In addition, the maximum activity of each compound and the respective dose that each compound reached maximum chondrogenesis activity is reported.

[2] = test system: Wnt activity (Sp5-Luc reporter, human Sp5 promoter with eight TCF/LEF binding sites) in SW480 colon carcinoma cells; assay: Screening assay for Wnt activity: Sp5-Luc reporter gene assay in SW480 cells; conditions: for inhibition at 10 µM: read-out: percent inhibition at 10 μM (given for EC50 of >10 μM); for EC50: 10-point dose-response starting from 10 μM, overnight incubation
Method in brief: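 SW480 cells stably carrying Sp5-Luc reporter (eight TCF/LEF sites) plated at 4,000/well in 1% FBS medium with compound (10-point 1:3 series from 10 μM, 0.1% DMSO) overnight at 37 °C. BrightGlo luminescence normalized to DMSO; EC50 by four-parameter fit, else % inhibition at 10 μM.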

SW480 colon cancer cells = assay: Cell viability assay (CellTiter-Blue) in SW480 colon cancer cells; conditions: Homo sapiens, 96 h; for inhibition at 10 µM: four days, CellTiter-Blue, read-out: percent inhibition at 10 μM (given for EC50 of >10 μM); for EC50: four days incubation, CellTiter-Blue cell viability
Method in brief: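 About 2×10^3 SW480 colon cancer cells per well were exposed to compound (8-point 1:3 dilutions, 10 μM to 0.004 μM) for four days at 37 °C. Viability was read by CellTiter-Blue resazurin reduction (~3 h, Ex 560/Em 590). EC50 from nonlinear regression; above 10 μM, % inhibition at 10 μM is reported.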

| Compound | EC50 [1] [nM] | EC50 [2] [µM] | EC50 (SW480 colon cancer cells) [µM] | Emax [1] [%] | inhibition at 10 µM [2] [%] | inhibition at 10 µM (SW480 colon cancer cells) [%] |
| --- | --- | --- | --- | --- | --- | --- |
| NC1CN(c2cncc(-c3ccc4[nH]nc(-c5nc6c(-c7cccc(F)c7)cncc6[nH]5)c4n3)n2)C1 [Compound 482, 1-(6-(3-(7-(3-Fluorophenyl)-3H-imidazo[4,5-c]pyridin-2-yl)-1H-pyrazolo[4,3-b]pyridin-5-yl)pyrazin-2-yl)azetidin-3-amine] | 7 | > 10 | > 10 | 56 | 21 | 3.8 |
| CC(C)CC(=O)Nc1cncc(-c2ccc3[nH]nc(-c4nc5c(-c6cccc(F)c6)cncc5[nH]4)c3n2)c1 [Compound 2, N-(5-(3-(7-(3-Fluorophenyl)-3H-imidazo[4,5-c]pyridin-2-yl)-1H-pyrazolo[4,3-b]pyridin-5-yl)pyridin-3-yl)-3-methylbutanamide] | 21 | > 10 | > 10 | 53 | 43 | 0 |
| Cc1cn(-c2cncc3[nH]c(-c4n[nH]c5ccc(-c6cncc(NC(=O)CC(C)C)c6)nc45)nc23)cn1 [Compound 198, 3-Methyl-N-(5-(3-(7-(4-methyl-1H-imidazol-1-yl)-3H-imidazo[4,5-c]pyridin-2-yl)-1H-pyrazolo[4,3-b]pyridin-5-yl)pyridin-3-yl)butanamide] | 100 | > 10 | > 10 | 59 | 1.8 | 4.2 |
| Cc1ccncc1-c1ccc2[nH]nc(-c3nc4c(-c5ccncc5)cncc4[nH]3)c2n1 [Compound 117, 5-(4-Methylpyridin-3-yl)-3-(7-(pyridin-4-yl)-3H-imidazo[4,5-c]pyridin-2-yl)-1H-pyrazolo[4,3-b]pyridine] | 30 | > 10 | > 10 | 68 | 23.1 | 2.8 |
| c1cncc(-c2ccc3[nH]nc(-c4nc5c(-c6cccnc6)cncc5[nH]4)c3n2)c1 [Compound 88, 5-(Pyridin-3-yl)-3-(7-(pyridin-3-yl)-3H-imidazo[4,5-c]pyridin-2-yl)-1H-pyrazolo[4,3-b]pyridine] | 30 | > 10 | > 10 | 84 | 28 | 7.1 |
| Fc1ccc(-c2cncc3[nH]c(-c4n[nH]c5ccc(-c6cncnc6)nc45)nc23)cc1 [Compound 55, 3-(7-(4-Fluorophenyl)-3H-imidazo[4,5-c]pyridin-2-yl)-5-(pyrimidin-5-yl)-1H-pyrazolo[4,3-b]pyridine] | 100 | > 10 | > 10 | 125 | 18 | 0 |
| CCCC(=O)Nc1cncc(-c2ccc3[nH]nc(-c4nc5c(-c6ccncc6)cncc5[nH]4)c3n2)c1 [Compound 129, N-(5-(3-(7-(Pyridin-4-yl)-3H-imidazo[4,5-c]pyridin-2-yl)-1H-pyrazolo[4,3-b]pyridin-5-yl)pyridin-3-yl)butyramide] | – | > 10 | > 10 | 31 | 0 | 2.8 |
| CCC(=O)Nc1cncc(-c2ccc3[nH]nc(-c4nc5c(N6CCCCC6)cncc5[nH]4)c3n2)c1 [Compound 169, N-(5-(3-(7-(Piperidin-1-yl)-3H-imidazo[4,5-c]pyridin-2-yl)-1H-pyrazolo[4,3-b]pyridin-5-yl)pyridin-3-yl)propionamide] | 900 | > 10 | > 10 | 70 | 2.3 | 2.2 |
| Cc1ncc(-c2ccc3[nH]nc(-c4nc5c(-c6cccc(F)c6)cncc5[nH]4)c3n2)n1C [Compound 481, 5-(1,2-Dimethyl-1H-imidazol-5-yl)-3-(7-(3-fluorophenyl)-3H-imidazo[4,5-c]pyridin-2-yl)-1H-pyrazolo[4,3-b]pyridine] | 30 | > 10 | 2.3 | 132 | 46 | – |

Continued, in another order:

| EC50 [1] [nM] | EC50 [2] [µM] | EC50 (SW480 colon cancer cells) [µM] | Compound | Emax [1] [%] | inhibition at 10 µM [2] [%] | inhibition at 10 µM (SW480 colon cancer cells) [%] |
| --- | --- | --- | --- | --- | --- | --- |
| 21 | > 10 | > 10 | CN(C)CC(=O)Nc1cncc(-c2ccc3[nH]nc(-c4nc5c(-c6cccc(F)c6)cncc5[nH]4)c3n2)c1 [Compound 925, 2-(Dimethylamino)-N-(5-(3-(7-(3-fluorophenyl)-3H-imidazo[4,5-c]pyridin-2-yl)-1H-pyrazolo[4,3-b]pyridin-5-yl)pyridin-3-yl)acetamide] | 52 | 23 | 16.1 |
| – | > 10 | > 10 | Cc1cn(-c2cncc3[nH]c(-c4n[nH]c5ccc(-c6cncc(NC(=O)C7CCC7)c6)nc45)nc23)cn1 [Compound 217, N-(5-(3-(7-(4-Methyl-1H-imidazol-1-yl)-3H-imidazo[4,5-c]pyridin-2-yl)-1H-pyrazolo[4,3-b]pyridin-5-yl)pyridin-3-yl)cyclobutanecarboxamide] | 47 | 6.7 | 0 |
| 21 | > 10 | > 10 | Oc1cncc(-c2ccc3[nH]nc(-c4nc5c(-c6cccc(F)c6)cncc5[nH]4)c3n2)c1 [Compound 489, 5-(3-(7-(3-Fluorophenyl)-3H-imidazo[4,5-c]pyridin-2-yl)-1H-pyrazolo[4,3-b]pyridin-5-yl)pyridin-3-ol] | 54 | 27 | 3.7 |
| 1670 | > 10 | > 10 | CCC(=O)Nc1cncc(-c2ccc3[nH]nc(-c4nc5c(-c6cccc(F)c6)cncc5[nH]4)c3n2)c1 [Compound 1, N-(5-(3-(7-(3-Fluorophenyl)-3H-imidazo[4,5-c]pyridin-2-yl)-1H-pyrazolo[4,3-b]pyridin-5-yl)pyridin-3-yl)propionamide] | 580 | 12.3 | 0 |
| 7 | > 10 | > 10 | Fc1cccc(-c2cncc3[nH]c(-c4n[nH]c5ccc(-c6ccncc6)nc45)nc23)c1 [Compound 18, 3-(7-(3-Fluorophenyl)-3H-imidazo[4,5-c]pyridin-2-yl)-5-(pyridin-4-yl)-1H-pyrazolo[4,3-b]pyridine] | 51 | 14 | 6.5 |
| 100 | > 10 | > 10 | Cc1cn(-c2cncc3[nH]c(-c4n[nH]c5ccc(-c6cncc(NC(=O)C(C)(C)C)c6)nc45)nc23)cn1 [Compound 204, N-(5-(3-(7-(4-methyl-1H-imidazol-1-yl)-3H-imidazo[4,5-c]pyridin-2-yl)-1H-pyrazolo[4,3-b]pyridin-5-yl)pyridin-3-yl)pivalamide] | 150 | 0 | 4.7 |
